Consider one compound from US10662225B2, “Backbone cyclized inhibitory peptides of myeloid differentiation factor 88 (MyD88)” (Yissum Research Development Company of the Hebrew …, priority 2016, dated 2020).

“Also recorded” adds a separate entry of the source. Numbered stars: 1 amine (or outer) side, 2 acyl side, 3 side chain; on linkers, the order of the positions; unused ones are H or OH. Bridge positions count the residues as written; N and C are the ends. Square brackets hold non-standard residues; d marks the D form. Peptide text beside a SMILES is read from it. CO = O=C([*:1])[*:2]; Nlys = NCCCCNCC(=O)O

Data set [1] can be described thus: Parallel Artificial Membrane Permeability Assay (PAMPA). In kind it is in vitro ADME. The following applies: in comparison to metoprolol. From the text:
FIG. 12. Papp of 4×4MyDI in the PAMPA model in comparison to metoprolol.
In general terms: The PAMPA barrier holds no transporters, so it reflects passive diffusion.

Data set [2] concerns MOG35-55/CFA induced EAE. The data set is described as follows: MOG35-55/CFA induced EAE model of multiple sclerosis. In kind it is in vivo, mice. The protocol: FIG. 2. MIP treatment reduces severity of EAE. Mice were immunized with MOG35-55/CFA with PTX administration at day 0 and at 48 h. Groups of mice were treated with MIP (SEQ ID NO: 1, squares) or PBS (triangles) and mean clinical score was calculated.
FIG. 8. 4×4MyDI lowers disease in mouse EAE model. Mice were immunized with MOG35-55/CFA with PTX administration at day 0 and at 48 h. Groups of mice were treated with 4×4MyDI (squares, n=7) or PBS as control (circles, n=4) from day 0, three times a week.
FIG. 15. 4×4MyDI reduces severity of EAE. C57BL/6 mice were immunized with MOG35-55/CFA and administered pertussis toxin on day zero and after 48 h. Groups of mice were treated with 4×4MyDI at 4 mg/kg from day zero, three times a week, for a total of 9 treatments (squares, n=7) or an identical volume of PBS as control, using the same schedule of administration (circles, n=7). […] Clinical disease was scored daily. ***P<0.0001, 2-way ANOVA.
Effective peptides are examined for treatment of mice with EAE (the animal model of MS) applying several disease models. One model is described in Owens T. and Sriram S. Neurologic Clinics (1995) 13(1):51-73. In this model, C57B1 mice are immunized with the MOG protein in adjuvant and the onset of paralysis which appears 10-14 days following the induction, is evaluated daily. Two groups of animals are treated with two doses of the peptide administered orally by cannula on a daily basis, from the day of EAE-induction. One month after the disease onset, the animals are sacrificed and their brains and spinal cords are processed for histopathological analysis (performed by a blinded for the treatment arm, neuropathologist). This includes the evaluation of the number of inflammatory infiltrates and the number of cells per infiltrate, the degree of demyelination and of axonal damage. Another EAE model for MS which can be used for the compounds of the present invention and for identifying additional Myd88 inhibitors is described in Prinz et al 2006, J Clin Investigation, 116, 2 456-464, and Cohen et al 2010, J Immunol 184(1):212-21). In this model, C57B1 mice are immunized with MOG35-55 peptide ([…], SEQ ID NO: 4) emulsified in complete Freund's adjuvant (CFA) and pertussis toxin is administered systemically at the time of immunization and 48 h later. Mice are treated with the Myd88 inhibitor systemically and the mice are followed for development of ascending paralysis which typically begins on day 8-10 following immunization.
The effect of MIP administration on the clinical outcome of MOG35-55/CFA induced EAE was tested. […]
Following bioactivity characterization in vitro, the lead compound was evaluated for efficacy using the in vivo murine MOG35-55-induced EAE model of multiple sclerosis. […]

For data set [3], the system named is CaCO-2 monolayer.
Description: Transport studies are performed through the CaCO-2 monolayer (passage range of 52-60) seeded at density of 25×10^5 cells/cm^2 on untreated culture inserts of polycarbonate membrane with 0.4 μm pores and surface of 1.1 cm^2. The culture inserets containing Caco-2 monolayers were place in 24 transwell plates 12 mm, Costar™. The cells were monitored for their transepithelial electrical resistance (TEER) measurements to assure TEER between 300 and 500 Ω*cm^2. […] HBSS supplemented with 10 mM MES and adjusted to pH 6.5 will be used as transport medium in the donor compartment and pH 7.4 in the acceptor compartment. The donor solution contains the test compound.
The investigation of the permeability of 4×4MyDI through CaCO-2 monolayer includes using two main control groups, Atenolol and Metoprolol that show passive para-cellular and trans-cellular permeability, respectively. The CaCO-2 model allows investigating the mechanism of absorption, so the permeability from apical to basolateral membranes (AB) can be measured to evaluate the total permeability. The permeability from basolateral to apical membranes (BA) can also be measured and compared to AB P apparent (Papp) to determine if the absorption is though passive diffusion, active transporters or if there is involvement of efflux systems.
The test system of data set [4] is NFkB activation. The experiment in a line: NFkB-luciferase reporter in RAW 264.7 macrophages stimulated with LPS. In kind it is cell-based, mouse. The following applies: RAW 264.7 NFkB-luc, 4 hours. How it is done:
FIG. 13. 4×4MyDI and Myr4×4MyDI block NFkB induction in response to LPS stimulation of RAW 264.7 NFkB-luc cells. RAW 264.7 murine macrophages were transfected with an NFkB-luciferase reporter gene and stimulated with LPS in the absence or presence of increasing concentrations of the inhibitors. After 4 hours cells were lysed and luminescence was recorded using a Tecan plate reader. BG denotes background.
In this assay the mouse macrophage RAW264.7 cell line is transfected with an NFkB-luciferase reporter construct and then cells are stimulated by exposure to bacterial LPS and light emission is measured after addition of luciferase substrate.

As to `CC(C)C[C@@H]1NC(=O)[C@H](C(C)C)NC(=O)[C@H](CC(=O)O)NC(=O)[C@H](CCCNC(=N)N)NC(=O)CN(C(=O)[C@@H](N)Cc2c[nH]c3ccccc23)CCCCNC(=O)NCCCCN(CC(=O)NCC(=O)N[C@H](C(N)=O)[C@@H](C)O)C1=O` [4×4MyDI] (H-W[Nlys]RDVL[Nlys]GT-NH2; linker 2-7 via CO; N-terminus assumed), the “passive diffusion through a lipid layer (Papp PAMPA)” value in data set [1] is reported as “does not diffuse well through a lipid layer”. Also, the EAE disease severity entry in data set [2] (4 mg/Kg i.p. three times a week from day 0) is listed as “significant reduction in disease severity; also recorded: significantly reduced disease severity”; in data set [2] (4 mg/Kg i.p. three times a week from day 7), “behaved similarly to the control group”; in data set [2] (40 mg/Kg on day zero and day three only) it was “reduced disease severity even further”. Further, in data set [2] (4×4MyDI from day 0, three times a week, vs PBS), the survival result is “better rate of survival”. Further, the “Papp AB (apical to basolateral)” value in data set [3] is recorded as “higher than metoprolol”. In addition, the “block of NFkB activation” value in data set [4] is given as “block NFkB activation in a dose dependent manner”.
